On to `COc1cc2c(cc1F)C(=Cc1ccc(S(C)=O)cc1)C(C)=C2CC(=O)O` (stereo not drawn), for which the melting point lay within 190 to 193 °C.

Molecule `C#Cc1c(-c2ccc(OC(F)F)c(OC3CC3)c2)[nH]c2cn[nH]c(=O)c12` displayed a melting point of more than 300 °C.

For the molecule `O=c1c2ccccc2nc(-c2sc(Nc3ccc(Cl)cc3)nc2-c2ccccc2)n1-c1ccc(Cl)cc1`, the melting point was in the range of 271 to 272 °C.

On to `O=C(O)C(Oc1ccc(F)c(C(F)(F)F)c1)c1ccc(Cl)cc1` (stereo not drawn), for which the melting point was determined as 106 °C.

As to `CC(C)(C)OC(=O)c1ccccc1NC(=O)CN1C(=O)c2ccccc2C1=O`, the melting point stood at 159 °C.

`COc1cc(C(=O)N(C(C)C)C2CCCCC2)ccc1Cn1c(C)nc2ncccc21` yielded a melting point of 201 to 203 °C.

`COc1cc(C(C)C)c2c(c1)S(=O)(=O)N(COC(=O)c1c(Cl)ccc(O)c1Cl)C2=O` yielded a melting point of 152 to 154 °C.

Take `CCCCNC(=O)C(O[Si](C)(C)C(C)(C)C)c1ccccc1O` (stereo not drawn): the melting point lay within 72 to 74 °C.

For `CC(C)C[C@H](NC(=O)[C@H](Cc1ccccc1)NCC(S)C(N)Cc1ccccc1)C(=O)O` (stereo partly drawn), the melting point was 123 to 160 °C.

In the case of `CC(=O)c1ccc(/C=C(\C)c2ccc3c(c2)C(C)(C)CCC3(C)C)cc1`, the melting point is 148 to 149 °C.

The molecule `CCNc1ncn(CC)c2nc(C3CC3)nc1-2` displayed a melting point of 103 to 105 °C.

On to `CC(=C1SCCCS1)c1cccc(OCC(=O)O)c1`, for which the melting point was in the range of 133 to 134 °C.

With `CCCc1nc2c(N)nc3cc(OCc4cscn4)ccc3c2s1`, the melting point lay within 218 to 220 °C.

In turn, `Cc1c(C(=O)Nc2ccc(Cl)c([N+](=O)[O-])c2)cnn1-c1ccc(C(F)(F)F)cc1` displayed a melting point of 206 to 208 °C.

Regarding `CC1(C)OC[C@@H](CNc2ccc3cc(OCC4CC4)ccc3c2)O1`, the melting point was in the range of 108 to 109 °C.

In the case of `C=C(C)C(=O)OCCCCOC(=O)/C=C/c1ccc(OC(=O)OCC)cc1`, the melting point lay within 54 to 56 °C.

On to `O=C1CCc2c(Cl)cc(Cl)c(I)c21`, for which the melting point lay in the range of 170 to 172 °C.

The molecule `CS(=O)(=O)c1ccc(Cl)cc1[N+](=O)[O-]` had a melting point of 145 °C.

In turn, `COc1cc(Cc2cnc(N)nc2N)cc2c(C)cc(C)nc12` displayed a melting point of 289 to 290 °C.

In turn, `CCOC(=O)Cc1c(C2CCCCC2)nn(-c2ccccc2)c1-c1ccccc1` came in with a melting point of 176 to 178 °C.

As for `O=C1CCN(C(=O)Cl)c2cc(Cl)ccc21`, the melting point fell in the range of 150 to 153 °C.

Molecule `CCN(CC)CCC(=O)Nc1ccc2c(c1)C(=O)c1cc(NC(=O)CCN(CC)CC)ccc1C2=O` returned a melting point of 193 °C.

On to `CS(=O)(=O)c1ccccc1C(=O)N1CCC(N2CCC(Oc3ccc(Cl)c(Cl)c3)CC2)CC1`, for which the melting point was found to be 141 °C.

`CCCCNc1nc2cccc(C(=O)OC)c2n1Cc1ccccc1-c1ccccc1-c1nnn[nH]1` returned a melting point of 216 to 218 °C.

Regarding `COC(=O)[C@@H]1C[C@H](NS(C)(=O)=O)C(=O)[C@H]2[C@@]1(C)CC[C@H]1C(=O)O[C@H](c3ccoc3)C[C@]21C`, the melting point lay within 262 to 265 °C.

In turn, `O=C(N[C@H]1CC[C@H](CCN2CCN(c3nccc4c3OCC4)CC2)CC1)c1ccnc2ccccc12` came in with a melting point of 222 °C.

The molecule `COc1ccc(-c2nc(-c3ccccc3Cl)sc2-c2ccc(S(C)(=O)=O)cc2)cc1` gave a melting point of 172 to 174 °C.

As for `CC1=C2C(=O)N(O)C(=O)c3cccc(c32)C(=NO)C1O` (stereo not drawn), the melting point was in the range of 302 to 304 °C.

With `CCSc1nc(-c2ccco2)c2ncn(Cc3ccc(OC)cc3)c2n1`, the melting point was in the range of 116 to 117 °C.

For the molecule `C=CCOc1ccc(C)c2c1C(C)(C)C(=O)N2`, the melting point was 153 to 155 °C.

In turn, `CCC(=O)NCCC1CCc2cc(F)c(OC)cc21` (stereo not drawn) showed a melting point of 76 to 78 °C.

In turn, `CC(C)c1ccc(-c2ccc3c(c2)C=C(C(=O)Nc2ccc(CN(C)C4CCOCC4)cc2)CCS3(=O)=O)cc1` gave a melting point of 240 to 247 °C.

`O=c1c(CCCO)c(O)c2cccnc2n1-c1ccccc1` came in with a melting point of 218 to 220 °C.

`NC(=O)N[C@@H]1CCC[C@@H](O)c2sccc21` (relative stereo) registered a melting point of 169 to 172 °C.

As for `CC(C)(C)OC(=O)N(CCN)CCN(CCN)C(=O)OC(C)(C)C`, the melting point lay within 81 to 82 °C.

For the molecule `CCOC(=O)NCCCCCCNC(=O)OCC`, the melting point was 80 to 82 °C.

In turn, `CCN(CC)CC(C)N1c2ccccc2Sc2ccc(C(=S)NCCC(C)C)cc21` (racemic) had a melting point of 80 °C.

`COc1ccc(CN2CCCc3cc(O)c(OC)cc3C2)cc1`: the melting point was in the range of 105 to 107 °C.

Consider `CCOC(=O)c1cc2cc(C)c(C(F)(F)F)cc2n1[C@H](C)CNC(=O)OC(C)(C)C`, for which the melting point was in the range of 103 to 105 °C.

Turning to `Cc1ccc2ccc(O)c(CC(=O)O)c2c1`, the melting point lay within 138 to 140 °C.

In turn, `COc1ccc(CCN2CCC(NC(=O)c3ccccc3)CC2)cc1OC` gave a melting point of 194 to 195 °C.

The molecule `CC(C)CC1N=C(c2ccccc2)OC1=O` (stereo not drawn) registered a melting point of 53 to 55 °C.

`CCCN=C(N)Nc1ccnc(SC)n1` yielded a melting point of 177 to 178 °C.

Regarding `CCOC(=O)COc1ccc(N)c(C)c1`, the melting point fell in the range of 198 to 200 °C.

With `O=C(CC1CCCCC1)Nc1ccc2oc3c(c2c1)CCCCC3`, the melting point fell in the range of 188 to 189 °C.

The molecule `COc1cn2nc(OCCCN3CCN(C(c4ccccc4)c4ccccc4)CC3)ccc2n1` showed a melting point of 144 to 146 °C.

`CC(C)(CO)NS(=O)(=O)c1cc(NC(=O)c2cnn3c(C(F)(F)F)cc(-c4ccc(C(F)(F)F)c(Cl)c4)nc23)c(Cl)s1` had a melting point of 254 °C.

As for `CN1Cc2c(-c3noc(CCl)n3)ncn2-c2ccc(F)c(Cl)c2C1=O`, the melting point fell in the range of 215 to 218 °C.

Consider `CCCCc1nc2c(N)nc3cccnc3c2n1CCNC(=O)c1c(C)noc1C`, for which the melting point lay in the range of 188 to 189 °C.

Consider `O=C(O)c1cn(-c2cccnc2)c2c(F)c(F)c(F)cc2c1=O`, for which the melting point fell in the range of 122 to 124 °C.

Molecule `Cc1cc(C)c(C2C(=O)OC3(CCN(N(C)C)CC3)C2=O)c(C)c1` (stereo not drawn) had a melting point of more than 200 °C.

As to `COc1ccc2c(c1)C(c1ccccc1)NN=C2Cc1c(Cl)cncc1Cl` (stereo not drawn), the melting point fell in the range of 175 to 177 °C.

In the case of `Cn1cnc(-c2ccc(NC(=C3C(=O)Oc4ccccc43)c3ccc(C4(N)CC4)cc3)cc2)c1`, the melting point lay in the range of 190 to 191 °C.

For the molecule `CC(C)CNC1NC(=O)N(c2ccccc2C(=O)O)C(=O)N1`, the melting point was more than 300 °C.

Consider `CC1Cc2ccccc2N1c1nc(=O)c2cccnc2s1` (stereo not drawn), for which the melting point lay in the range of 179 to 180 °C.

For the molecule `COc1cccc(C(=O)Nc2ccc(CN3C(=O)[C@H]4CCC[C@H]4N(C(=O)CN4C(=O)c5ccccc5C4=O)c4ccccc43)cc2)c1` (relative stereo), the melting point was 250 to 251 °C.

Consider `CCCc1nc(OC)c(N(C)C(=O)N2CCN(c3cc(OC)cc(OC)c3)CC2)cc1C`, for which the melting point lay in the range of 106 to 107 °C.

On to `CS(=O)(=O)Nc1cc2oc(O)cc(=O)c2cc1Oc1ccccc1`, for which the melting point was more than 250 °C.

`CCCCCCCCc1ccc(NC2=NCCS2)cc1` came in with a melting point of 82 to 84 °C.

In turn, `N#Cc1ccc([C@H]2CC[C@H](CCC=O)CC2)cc1` showed a melting point of 30 °C.

Consider `CC(C)c1nc(C(C)(C)C)cc(-c2ccc(F)cc2)c1C=CI`, for which the melting point was in the range of 78 to 80 °C.

In turn, `CCOC(=O)CCCc1cn(C(c2ccccc2)(c2ccccc2)c2ccccc2)cn1` came in with a melting point of 134 °C.

In turn, `CN(C(=O)OC[C@@]1(C)Cn2cc([N+](=O)[O-])nc2O1)c1ccc(Cl)cc1` displayed a melting point of 131 to 133 °C.

Consider `Cc1ccsc1C(Cc1ccccc1N)N(C)C=O` (stereo not drawn), for which the melting point lay within 111 to 112 °C.

The molecule `Cc1ccc(-c2ccc(Sc3ccccc3)s2)cc1` registered a melting point of 85 to 86 °C.

`CCCCCCCCCCCCCCCCC(=O)Nc1ccc(O)cc1` came in with a melting point of 137 °C.

`CC(C)[Si](C(C)C)(C(C)C)N1C=C2C=C(C=O)OCC3=C2C(=C1)CC3N(C)C` (stereo not drawn) came in with a melting point of 104 to 106 °C.

As for `CN(C)Cc1cc(Nc2nncc3ccccc23)cc(CN(C)C)c1O`, the melting point was determined as 195 °C.

As to `COc1cccc(CN2Cc3cc(OC)c(O)cc3C(O)C2)c1` (stereo not drawn), the melting point is 137 to 138 °C.

Molecule `Cc1c(S(=O)(=O)c2ccc(=O)[nH]n2)oc2cccc(Cl)c12` gave a melting point of 232 to 233 °C.

The molecule `OCC#Cc1cc(Cl)cc2nc(-c3ccccc3Cl)oc12` registered a melting point of 165 to 169 °C.

`CCCCC(=Nc1sc(Cl)cc1C(=O)NCCC)OC` registered a melting point of 110 to 112 °C.

`CC(C)OC(=Cn1ccnc1)c1ccc(Cl)cc1Cl` showed a melting point of 184 to 186 °C.

`COc1ccccc1C(=O)c1cccc(NC(=O)c2ccn3c2CSC3c2cccnc2)c1` (stereo not drawn): the melting point came out at 184 °C.

Consider `CN1CCCC1C1CCCN(CC(=O)N2c3ccccc3NC(=O)c3ccccc32)C1` (stereo not drawn), for which the melting point lay within 161 to 163 °C.

In turn, `O=C(O)c1ccc(OCCF)cc1` had a melting point of 135 °C.

As to `CC(C)(C)CCc1ccc(C(=O)NNS(=O)(=O)c2ccccc2)cc1`, the melting point was in the range of 168 to 169 °C.

The molecule `CCOc1cc(N)c([N+](=O)[O-])cc1NCCO` returned a melting point of 157 to 158 °C.

On to `CN(C)CC1CCCCN1CCCNC(=O)N1c2ccccc2NC(=O)c2ccccc21` (stereo not drawn), for which the melting point lay in the range of 131 to 133 °C.

In turn, `COc1ccc(-c2ccc(C(=O)Nc3ccc4cc(CN5CCCCCC5)cnc4c3C)c(F)c2)cc1` showed a melting point of 171 to 172 °C.

In the case of `CNS(=O)(=O)CC(=O)c1cc(OC)ccc1N`, the melting point lay in the range of 117 to 118 °C.

The molecule `O=C(Nc1ccc([N+](=O)[O-])c(C(F)(F)F)c1)c1ccccc1SSc1ccccc1C(=O)Nc1ccc([N+](=O)[O-])c(C(F)(F)F)c1` registered a melting point of 167 to 169 °C.

The molecule `C=C(C)c1nnc(-c2cc3c([nH]c2=O)CCN(Cc2ccccc2)C3)o1` came in with a melting point of 221 to 223 °C.

In turn, `O=C1CCCCC1=CC(=O)c1ccccc1` displayed a melting point of 75 to 77 °C.

In turn, `COC(=O)C(N)(CO)Cc1c[nH]c2ccccc12` (racemic) returned a melting point of 148 to 149 °C.

Consider `COC(=O)c1ccccc1C1=NC(C)C(=S)N1` (stereo not drawn), for which the melting point fell in the range of 134 to 138 °C.

In turn, `Cc1ccc(C=CCC#N)cc1` yielded a melting point of 60 to 61 °C.

In turn, `CC(=O)N1[C@@H](C)[C@@H]2C(=O)N(Cc3ccccc3)C(=O)[C@@H]2[C@@H]1c1ccc(C#N)cc1` (racemic) gave a melting point of 107 to 109 °C.

(Values after a melting point compilation (Tetko et al.; mined from patent text by program, amines drawn as free bases though some values may be those of a salt).)
